Data published in patent US20250032532A1, “COMBINATION OF OCTAPEPTIDE AND HIGH MOLECULAR WEIGHT HYALURONIC ACID FOR TOPICAL APPLICATION” (Alastin Skincare, Inc., priority 2022, published 2025).

Experiments:
[1] = test system: Hyaluronic Acid Synthase 2 (HAS2); test: RNA-Seq gene expression of HAS2 in dermal fibroblasts; type: cell-based, Human; conditions: 100 μg/ml, 24 hr
Method: (§1) Cell Lines. Human adult dermal fibroblast and keratinocyte cell lines were treated with 11 different compound treatments (plus DMSO control as treatment #12). Primary cells were plated in cell specific media at 5K or 10K cells per cm^2. Cells were plated in 48 well plates in triplicate, one cell line per plate. Media volume was 500ul per well. Outer two columns of wells were not used. Cells were cultured for 2 days in 37° C. 5% CO2 incubator. After 48 hours all the cell cultures were uniform and appeared healthy, no appreciable number of floating dead cells or evidence of vacuolization of cells that might indicate apoptotic or dying cells.
(§2) Compounds. Stocks of compounds 1 through 8 on the list below were prepared in PBS at 100× the concentration indicated in red type. […] This stock was 100× of final concentration. A 20 mg/ml stock of compound 10 (CBD) was prepared in DMSO. […]
(§3) RNA lysate preparation. […] All samples were shipped frozen on dry ice for RNA extraction, library construction and sequencing to 25 M paired end 100 bp reads per sample.
(§4) RNA-Seq. All the RNA samples were shipped frozen on dry ice for RNA extraction, library construction and sequencing to 25 M paired end 100 bp reads per sample. Differentially expressed genes were identified and pathway enrichment was assessed using the Reactome Pathway.

[2] = test system: Hyaluronidase 2 (HYAL2); test: RNA-Seq gene expression of HYAL2 in keratinocytes; type: cell-based, Human; conditions: 100 μg/ml, 24 hr
Method: as §1, §2, §3, §4

[3] = test system: Human dermal fibroblasts; test: Octapeptide dose-response of high MW HA production (band density); type: cell-based; conditions: 72 hours
Method: Human dermal fibroblasts were treated with Octapeptide (1× and 10×; corresponding to 10 μg/ml and 100 μg/ml respectively) or left untreated. After 72 hours, the supernatant was collected, concentrated, run on an SDS-PAGE, stained and imaged. The experiment was conducted 4 times and the density of the bands from each supernatant were quantified (arbitrary units (AU)) using ImageJ. The data was graphed in FIG. 6 and represents the mean±standard deviation of the band densities for each treatment condition.

[4] = test system: Hyaluronic Acid Synthase 2 (HAS2); test: RNA-Seq gene expression of HAS2 in keratinocytes; type: cell-based, Human; conditions: 100 μg/ml, 24 hr
Method: as §1, §2, §3, §4

[5] = test system: Early Growth Response 3 (EGR3); test: RNA-Seq gene expression of EGR3 in keratinocytes; type: cell-based, Human; conditions: 100 μg/ml, 24 hr
Method: as §1, §2, §3, §4

| Substance | fold-change in HAS2 gene expression relative to non-treated cells [1] | fold-change in HYAL2 gene expression relative to non-treated cells [2] | production of high MW HA in dermal fibroblasts ([3]; 1× and 10× (10 μg/ml and 100 μg/ml)) | density of high MW HA band (ImageJ) ([3]; 10× Octapeptide (100 μg/ml), 4 experiments) | fold-change in HAS2 gene expression relative to non-treated cells [4] | upregulation of EGR3 gene expression relative to non-treated cells [5] |
| --- | --- | --- | --- | --- | --- | --- |
| Octapeptide: proprietary peptide designed by Alastin; in some embodiments octapeptide-45, amino acid sequence GPHGVREA (Gly-Pro-His-Gly-Val-Arg-Glu-Ala) | excellent stimulation | modest downregulation | dose-responsive increase | vast increase in signal density |  |  |
| Hexapeptide-11 |  | potent downregulation |  |  | excellent upregulation | about seven |
